Entries after “also recorded” stand apart in the source; their conditions may differ. Square brackets hold non-standard residues; d marks the D form. Peptide text beside a SMILES is read from it.
Experiments:
small α-syn PFF seeds = assay: Protein quantification after centrifugation (precipitation of small α-syn PFF); assay type: physicochemical; settings: as DLS samples (200 nM PFF + 500 nM SVD-1a), 0, 20, 72 h at 37 °C, centrifuged 21,000×g 30 min, Micro-BCA, n = 3
Description: Measurements were performed using a SpectroSize 300 131 (XtalConcepts, GE) instrument and a sample volume of 1 ml in a sealed quartz cuvette (Hellma Group, GE). Samples were incubated in PBS pH 7.4 at 37 °C under quiescent conditions. Prior to measurements, all samples were centrifuged at 21,000×g for 30 min at 4 °C to remove potential impurities from the solution. For time-dependent DLS measurements, data points were recorded every 60 s. Diffusion coefficients were obtained from analysis of the decay of the scattered intensity autocorrelation function and were used to determine apparent hydrodynamic radii via the Stokes-Einstein equation. Kinetic fitting for the degradation of small α-syn PFF seeds was performed with the “SVD-1a + small α-syn PFF” sample using the “single-phase exponential decay function” of GraphPad Prism 10 (GraphPad Software Inc., USA), considering only particle sizes in the range of 1–100 nm with an amplitude > 0.2. […] Protein quantification after centrifugation was performed by incubating identical samples as in the DLS measurements with additional compound and buffer controls in low-binding reaction tubes at 37 °C under quiescent conditions (n = 3). […] Protein quantification of pellet and supernatant was performed using a Micro-BCA kit following the manufacturer’s instructions (Thermo Fisher Scientific, USA). […]

α-syn monomer = assay: CD secondary structure analysis of de novo aggregation; assay type: biochemical; settings: 10 µM α-syn + 20 µM SVD-1a (two-fold molar excess), 7 days
Description: Fig. 7 De novo aggregation analysis of α-syn in the presence and absence of SVD-1a. A De novo ThT assay of 10 µM α-syn with and without 20 µM SVD-1a. ThT fluorescence progression was measured in a 96-well non-binding half-area plate (Corning, USA) with a FLUOStar plate reader (BMG labtech, GE) at λex = 448 nm and λem = 482 nm with 300 rpm continuous orbital shaking between reads. For induction of aggregation, one borosilicate bead per well was added (d = 3 mm, Hilgenberg, GE). Data are shown as mean values with ±SD (n = 5). B CD secondary structure analysis of de novo aggregation samples. Samples were incubated as described in (A) without added ThT (n = 3) and subsequently pooled for CD analysis. Far-UV ellipticity of the samples was measured in a quartz cuvette (l = 10 mm) in a J-1100 CD-spectrometer (Jasco, GE). In addition to (A), a sample with 20 µM SVD-1a alone was incubated under identical conditions and later used as a reference for the sample with α-syn and SVD-1a. For this sample (α-syn + SVD-1a (after incubation)), the SVD-1a reference subtracted CD spectrum is shown. […] D α-Syn in the flow through (MWCO < 100 kDa) was quantified using an α-syn specific ELISA (BioLegend, Human α-Synuclein (Colorimetric), 448607, n = 3). E Retentate and flow-through samples were analyzed using SDS–PAGE with silver staining. […]

Solubility of D-peptides = settings: PBS pH 7.4, 1 h at 37 °C, 20,800×g centrifugation, UV–vis absorption; lyophilized chloride salt

SMILES | precipitation of small α-syn PFF seeds (small α-syn PFF seeds) | α-syn secondary structure after de novo aggregation (CD) (α-syn monomer) | concentration completely retained in supernatant (Solubility of D-peptides)
CC[C@@H](C)[C@@H](NC(=O)[C@@H](Cc1c[nH]cn1)NC(=O)[C@@H](CCC(=O)O)NC(=O)[C@@H](CCC(N)=O)NC(=O)[C@@H](Cc1c[nH]c2ccccc12)NC(=O)[C@@H](Cc1ccc(O)cc1)NC(=O)[C@H](NC(=O)[C@@H](CCC(=O)O)NC(=O)[C@@H](Cc1c[nH]cn1)NC(=O)[C@H](NC(=O)[C@H]1CCCN1C(=O)[C@@H](CC(C)C)NC(=O)[C@H](N)CCCNC(=N)N)[C@H](C)O)[C@H](C)O)C(=O)N[C@H](Cc1c[nH]c2ccccc12)C(=O)N[C@H](Cc1c[nH]cn1)C(=O)N[C@H](C)C(=O)N[C@H](CCCNC(=N)N)C(=O)N[C@H](CCCNC(=N)N)C(=O)N[C@H](CCCNC(=N)N)C(=O)N[C@H](CCCNC(=N)N)C(=O)N[C@H](CCCNC(=N)N)C(N)=O [SVD-1a] (H-[dR][dL][dP][dT][dH][dE][dT][dY][dW][dQ][dE][dH][dI][dW][dH][dA][dR][dR][dR][dR][dR]-NH2) | did not lead to precipitation of these species | no spectrum shift towards a beta-sheet spectrum was observed; also recorded: fully stabilizes monomeric α-syn in its random coil secondary structure after 7 days of incubation | –
CC[C@@H](C)[C@@H](NC(=O)[C@@H](Cc1c[nH]cn1)NC(=O)[C@@H](CCC(=O)O)NC(=O)[C@@H](CCC(N)=O)NC(=O)[C@@H](Cc1c[nH]c2ccccc12)NC(=O)[C@@H](Cc1ccc(O)cc1)NC(=O)[C@H](NC(=O)[C@@H](CCC(=O)O)NC(=O)[C@@H](Cc1c[nH]cn1)NC(=O)[C@H](NC(=O)[C@H]1CCCN1C(=O)[C@@H](CCSC)NC(=O)[C@H](N)CCCCN)[C@H](C)O)[C@H](C)O)C(=O)N[C@H](Cc1c[nH]c2ccccc12)C(=O)N[C@H](Cc1c[nH]cn1)C(=O)N[C@H](C)C(N)=O [SVD-1] (H-[dK][dM][dP][dT][dH][dE][dT][dY][dW][dQ][dE][dH][dI][dW][dH][dA]-NH2) | – | – | at least 1 mM
